This is an account of results in patent US4851385A, “LHRH antagonist analogs having low histamine-release activity” (Indiana University Foundation, priority 1987, dated 1989).

Where a SMILES comes first, the peptide text is derived from it. [ ]: non-standard residue; d: D form. dPhe(4-Cl) = N[C@H](Cc1ccc(Cl)cc1)C(=O)O; d2Nal = N[C@H](Cc1ccc2ccccc2c1)C(=O)O

The test system of series [1] is rat mast cells. Put plainly: In vitro histamine releasing activity assay (rat peritoneal mast cell suspension, fluorometric histamine assay). Type of series: cell-based. To be noted: mean effective dose from dose response curves, 15 min at 37° C., duplicate or triplicate, cells from at least three rats. As for the experimental part:
The in vitro histamine release activity of the analogs was assayed by the method described below and the results are given in Table I.
A suspension of rat mast cells was added to increasing concentrations of peptide and the mixture was incubated for a few minutes followed by centrifugation to collect the histamine in the supernatant. A PIPES (piperazine-N,N'-bis[2-ethanesulfonic acid]) medium buffered at pH 7.4 containing NaCl119 mM, KCl5 mM, PIPES 25mM, NaOH 40 mM, glucose 5.6 mM, CaCl2 1 mM and 0.1% bovine serum albumin was used. This was designated as PIPES AC. Peptides were dissolved in double distilled H2 O at a concentration of 2 mg ml and stored at -20° C. They were thawed just prior to testing, duluted in PIPES AC and prewarmed for 5 min. at 37° C. Peptides studied were stable to heating at 56° C. for 2 hr., and to freezing and thawing.
Peritoneal cells were collected from male Sprague-Dawley rats weighing 200 to 250 gm and purchased from Harlan (Madison, Wis.). After euthanasia by CO2, the peritoneal cavity was washed with 50 ml PIPES AC medium containing 20 units of heparin. Following centrifugation at 200×g for 8 min. at 4° C., cells were washed again and finally resuspended to a concentration of 8 to 24×10^5 total leukocytes/ml in PIPES AC. This suspension contained approximately 5-10% mast cells. […]

The test system of a further series is rat. Put plainly: Standard antiovulatory assay (Corbin and Beattie). Type of series: in vivo. Here is the method:
Antiovulatory activity was determined by standard antiovulatory assays conducted by the method described by Corbin and Beattie, Endocrine Research Communications 2 1 (1975) and results are given in Table I.

The next series relates to histamine release. To be noted: cited from earlier work.
Series [2] relates to rat mast cells. The following applies: mast cell supernatants assayed concomitantly for lactic dehydrogenase. An excerpt:
The ED50 values of Table I (mean effective dose from dose response curves), are expressed in μg/ml. […] For routine testing, mast cells were not purified.

For the compound “[N--Ac--D-Nal(2)^1,D-C--α-Me--pCl--Phe^2,D-Pal(3)^3,D-Arg^6,hArg(Et2)^8,D-Ala^10 ]LHRH [Compound 2]”, the “In Vitro Histamine Release ED50” value in the series with rat mast cells [1] was 4.9 µg/mL. In the series on rat (corn oil vehicle, ≥ = significant reduction in rats ovulating but ED100 not achieved at the dose, ≥≥ = inactive at the dose tested), the “Ovulation Inhibition, Corn Oil, ED100” value turned out to be 1.0 ug/rat. “[N-Ac-D-Nal(2)^1, D-pC1-Phe^2, D-Pal^3, Arg^5, D-Tyr^6, D-Ala^10 ]LHRH”: the “mean effective dose for histamine release (known analog)” value with histamine release (from Roeske et al. 1985) was “about 4.0 ug/ml”. As for `CC(=O)N[C@H](Cc1ccc2ccccc2c1)C(=O)N[C@H](Cc1ccc(Cl)cc1)C(=O)N[C@H](Cc1c[nH]c2ccccc12)C(=O)N[C@@H](CO)C(=O)N[C@@H](Cc1ccc(O)cc1)C(=O)N[C@H](CCCNC(=N)N)C(=O)N[C@@H](CC(C)C)C(=O)N[C@@H](CCCNC(=N)N)C(=O)N1CCC[C@H]1C(=O)N[C@H](C)C(N)=O` [Compound 1, [N-Ac-D-Nal(2)^1, D-p-Cl-Phe^2, D-Trp^3, D-Arg^6, D-Ala^10] LHRH] (Ac-[d2Nal][dPhe(4-Cl)][dW]SY[dR]LRP[dA]-NH2), the “histamine releasing activity (in words)” value in the series with histamine release (Karten and Rivier 1986) is reported as “potent histamine releasing anlog”. For `CC(C)C[C@H](NC(=O)CNC(=O)[C@H](Cc1ccc(O)cc1)NC(=O)[C@H](CO)NC(=O)[C@H](Cc1c[nH]c2ccccc12)NC(=O)[C@H](Cc1cnc[nH]1)NC(=O)[C@@H]1CCC(=O)N1)C(=O)N[C@@H](CCCNC(=N)N)C(=O)N1CCC[C@H]1C(=O)NCC(N)=O` [LHRH, luteinizing hormone-releasing hormone], the “cell toxicity by release of lactic dehydrogenase” value in the series with rat mast cells [2] is recorded as “no evidence seen of cell toxicity”. As to “[Ac-2-D-Nal^1, α-Me-4-C1-D-Phe^2, D-Trp^3, Arg^5, D-Tyr^6, D-Ala^10 ] LHRH”, in the series on histamine release (Roeske et al. 1985), the “times less potent in histamine releasing activity than the synthetic D-Arg6 antagonists” value is recorded as 20-40 times. Consider “[Ac-D-2-Nal^1, D-4-C1-Phe^2, D-Trp^3, D-N^ε -Heptyl Lys, Nε-Heptyl Lys^8, D-Ala^10 ]LHRH”, for which the “antiovulatory activity (in words)” value in the series with rat (N-alkylation of Lys 6 and 8 with a 7-carbon moiety) is “lowers antiovulatory activity markedly”.
